# What was measured:
# NCI/ADR-RES = assay: Antiproliferative activity against human MCF7/ADR cells after 96 hrs by MTT assay; assay type: functional
# MCF7 = assay: Antiproliferative activity against human MCF7 cells after 96 hrs by MTT assay; assay type: functional; conditions: MCF7, 96 h
# [1] = Selectivity ratio of GI50 for human MCF7 cells to GI50 for human MCF7/ADR cells; assay type: functional
# MDA-MB-231 = assay: Antiproliferative activity against human MDA-MB-231 cells after 96 hrs by MTT assay; assay type: functional; conditions: MDA-MB-231, 96 h
# [2] = AUC (0 to infinity) in Sprague-Dawley rat at 10 mg/kg, iv administered as single dose by LC-MS/MS analysis; assay type: ADME, organism-based; design: dose 10 mg/kg, route intravenous, time infinity; conditions: in vivo
# [3] = Plasma concentration in Sprague-Dawley rat at 10 mg/kg, iv administered as single dose measured at 2 hrs post dosing by LC-MS/MS analysis; assay type: ADME, organism-based
# [4] = Plasma concentration in Sprague-Dawley rat at 10 mg/kg, iv administered as single dose measured at 24 hrs post dosing by LC-MS/MS analysis; assay type: ADME, organism-based
# PC-3 = assay: Antiproliferative activity against human PC3 cells after 96 hrs by MTT assay; assay type: functional; conditions: PC-3, 96 h
# HL-60 = assay: Antiproliferative activity against human HL60 cells after 96 hrs by MTT assay; assay type: functional; conditions: HL-60, 96 h
# [5] = Plasma concentration in Sprague-Dawley rat at 10 mg/kg, iv administered as single dose measured at 0.083 hrs post dosing by LC-MS/MS analysis; assay type: ADME, organism-based
# LNCaP = assay: Antiproliferative activity against human LNCAP cells after 96 hrs by MTT assay; assay type: functional
# [6] = Plasma concentration in Sprague-Dawley rat at 10 mg/kg, iv administered as single dose measured at 1 hr post dosing by LC-MS/MS analysis; assay type: ADME, organism-based
# K562 = assay: Antiproliferative activity against human K562 cells after 96 hrs by MTT assay; assay type: functional; conditions: K562, 96 h
# [7] = Plasma concentration in Sprague-Dawley rat at 10 mg/kg, iv administered as single dose measured at 0.5 hrs post dosing by LC-MS/MS analysis; assay type: ADME, organism-based
# U-937 = assay: Antiproliferative activity against human U937 cells after 96 hrs by MTT assay; assay type: functional; conditions: U-937, 96 h
# NB-4 = assay: Antiproliferative activity against human NB4 cells after 96 hrs by MTT assay; assay type: functional; conditions: NB-4, 96 h
# [8] = AUC (0 to t) in Sprague-Dawley rat at 10 mg/kg, iv administered as single dose by LC-MS/MS analysis; assay type: ADME, organism-based; conditions: in vivo
# [9] = Cmax in Sprague-Dawley rat at 10 mg/kg, iv administered as single dose by LC-MS/MS analysis; assay type: ADME, organism-based; design: dose 10 mg/kg, route intravenous; conditions: in vivo
# [10] = Plasma concentration in Sprague-Dawley rat at 10 mg/kg, iv administered as single dose measured at 0.25 hrs post dosing by LC-MS/MS analysis; assay type: ADME, organism-based
# [11] = MRT (0 to infinity) in Sprague-Dawley rat at 10 mg/kg, iv administered as single dose by LC-MS/MS analysis; assay type: ADME, organism-based; conditions: in vivo
# [12] = Plasma concentration in Sprague-Dawley rat at 10 mg/kg, iv administered as single dose measured at 8 hrs post dosing by LC-MS/MS analysis; assay type: ADME, organism-based
# [13] = Plasma concentration in Sprague-Dawley rat at 10 mg/kg, iv administered as single dose measured at 4 hrs post dosing by LC-MS/MS analysis; assay type: ADME, organism-based
# [14] = Apparent terminal half life in Sprague-Dawley rat at 10 mg/kg, iv administered as single dose by LC-MS/MS analysis; assay type: ADME, organism-based; conditions: in vivo, read-out: betat1/2(app) (converted)
# [15] = Apparent clearance in Sprague-Dawley rat at 10 mg/kg, iv administered as single dose by LC-MS/MS analysis; assay type: ADME, organism-based; conditions: in vivo, read-out: CL(app) (converted)
# [16] = Apparent volume of distribution in Sprague-Dawley rat at 10 mg/kg, iv administered as single dose by LC-MS/MS analysis; assay type: ADME, organism-based; conditions: in vivo, read-out: Vz
smiles,measurement,setting,value
CC(=O)N1N=C(c2ccc(O[C@@H]3O[C@@H]4O[C@@]5(C)CC[C@H]6[C@H](C)CC[C@@H]([C@H]3C)[C@@]46OO5)cc2)CC1c1ccccc1 (some centres not stated),GI50,NCI/ADR-RES,50 nM
same,GI50,MCF7,570 nM
same,RatioGI50,[1],14.2
same,GI50,MDA-MB-231,1230 nM
COc1ccc(C2CC(c3ccc(O[C@@H]4O[C@@H]5O[C@@]6(C)CC[C@H]7[C@H](C)CC[C@@H]([C@H]4C)[C@@]57OO6)cc3)=NN2C(C)=O)c(OC)c1 (some centres not stated),GI50,NCI/ADR-RES,58 nM
same,GI50,MCF7,380 nM
same,RatioGI50,[1],6.6
same,GI50,MDA-MB-231,580 nM
COc1ccc(C2CC(c3ccc(O[C@H]4O[C@@H]5O[C@@]6(C)CC[C@H]7[C@H](C)CC[C@@H]([C@H]4C)[C@@]57OO6)cc3)=NN2C(C)=O)c(OC)c1 (some centres not stated),GI50,NCI/ADR-RES,25 nM
same,GI50,MCF7,500 nM
same,RatioGI50,[1],20
same,GI50,MDA-MB-231,240 nM
COc1ccc(-c2cc(-c3ccc(O[C@H]4O[C@@H]5O[C@@]6(C)CC[C@H]7[C@H](C)CC[C@@H]([C@H]4C)[C@@]57OO6)cc3)n[nH]2)cc1,GI50,NCI/ADR-RES,28 nM
same,GI50,MCF7,560 nM
same,RatioGI50,[1],20
same,GI50,MDA-MB-231,870 nM
CC(=O)N1N=C(c2ccc(O[C@H]3O[C@@H]4O[C@@]5(C)CC[C@H]6[C@H](C)CC[C@@H]([C@H]3C)[C@@]46OO5)cc2)CC1c1ccccc1 (some centres not stated),AUC(0-inf),[2],4170 ng·h/mL
same,concentration at 2 h,[3],523 ng/mL
same,GI50,NCI/ADR-RES,61 nM
same,GI50,MCF7,130 nM
same,concentration at 24 h,[4],6.73 ng/mL
same,GI50,PC-3,110 nM
same,GI50,HL-60,25 nM
same,concentration at 0.083 h,[5],2430 ng/mL
same,GI50,LNCaP,93 nM
same,concentration at 1 h,[6],935 ng/mL
same,GI50,K562,73 nM
same,concentration at 0.5 h,[7],1260 ng/mL
same,RatioGI50,[1],2.1
same,GI50,U-937,40 nM
same,GI50,NB-4,29 nM
same,AUC(0-t),[8],4140 ng·h/mL
same,Cmax,[9],2430 ng/mL
same,concentration at 0.25 h,[10],1900 ng/mL
same,MRT inf,[11],3.07 h
same,GI50,MDA-MB-231,420 nM
same,concentration at 8 h,[12],63.9 ng/mL
same,concentration at 4 h,[13],224 ng/mL
same,half-life,[14],3.87 h
same,clearance,[15],41.3 mL/min/kg
same,Vd,[16],13.7 L/kg
C[C@H]1[C@@H](Oc2ccc(-c3cc(-c4ccc(Br)cc4)[nH]n3)cc2)O[C@@H]2O[C@@]3(C)CC[C@H]4[C@H](C)CC[C@@H]1[C@@]24OO3,GI50,NCI/ADR-RES,33 nM
same,GI50,MCF7,340 nM
same,RatioGI50,[1],10.3
same,GI50,MDA-MB-231,410 nM
C[C@H]1[C@@H](O)O[C@@H]2O[C@@]3(C)CC[C@H]4[C@H](C)CC[C@@H]1[C@@]24OO3 [ARTENIMOL],GI50,PC-3,> 10000 nM
same,GI50,HL-60,191 nM
same,GI50,LNCaP,> 10000 nM
same,GI50,K562,> 10000 nM
same,RatioGI50,[1],10
same,GI50,U-937,910 nM
same,GI50,NB-4,151 nM
same,GI50,MDA-MB-231,12600 nM
COc1ccc(C2CC(c3ccc(O[C@@H]4O[C@@H]5O[C@@]6(C)CC[C@H]7[C@H](C)CC[C@@H]([C@H]4C)[C@@]57OO6)cc3)=NN2C(C)=O)cc1 (some centres not stated),GI50,NCI/ADR-RES,51 nM
same,GI50,MCF7,300 nM
same,RatioGI50,[1],5.9
same,GI50,MDA-MB-231,990 nM
COc1ccc(-c2cc(-c3ccc(O[C@H]4O[C@@H]5O[C@@]6(C)CC[C@H]7[C@H](C)CC[C@@H]([C@H]4C)[C@@]57OO6)cc3)n[nH]2)c(OC)c1,GI50,NCI/ADR-RES,33 nM
same,GI50,MCF7,330 nM
same,RatioGI50,[1],10
same,GI50,MDA-MB-231,670 nM
CC(=O)N1N=C(c2ccc(O[C@@H]3O[C@@H]4O[C@@]5(C)CC[C@H]6[C@H](C)CC[C@@H]([C@H]3C)[C@@]46OO5)cc2)CC1c1ccc(Br)cc1 (some centres not stated),GI50,NCI/ADR-RES,150 nM
same,GI50,MCF7,980 nM
same,RatioGI50,[1],6.5
same,GI50,MDA-MB-231,580 nM
CC(=O)N1N=C(c2ccc(O)cc2)CC1c1ccccc1 (configuration not stated),GI50,NCI/ADR-RES,38000 nM
same,GI50,MCF7,29100 nM
same,RatioGI50,[1],0.77
COc1ccc(C2CC(c3ccc(O[C@H]4O[C@@H]5O[C@@]6(C)CC[C@H]7[C@H](C)CC[C@@H]([C@H]4C)[C@@]57OO6)cc3)=NN2C(C)=O)cc1 (some centres not stated),GI50,NCI/ADR-RES,28 nM
same,GI50,MCF7,320 nM
same,RatioGI50,[1],11.4
same,GI50,MDA-MB-231,500 nM
C[C@@H]1CC[C@H]2[C@@H](C)C(O)O[C@@H]3O[C@@]4(C)CC[C@@H]1[C@]32O4 (some centres not stated),GI50,MCF7,> 400000 nM
C[C@H]1[C@H](Oc2ccc(-c3cc(-c4ccc(Cl)cc4)[nH]n3)cc2)O[C@@H]2O[C@@]3(C)CC[C@H]4[C@H](C)CC[C@@H]1[C@@]24OO3,GI50,NCI/ADR-RES,31 nM
same,GI50,MCF7,440 nM
same,RatioGI50,[1],14.2
same,GI50,MDA-MB-231,630 nM
Oc1ccc(-c2cc(-c3ccccc3)n[nH]2)cc1,GI50,NCI/ADR-RES,18200 nM
same,GI50,MCF7,21200 nM
same,RatioGI50,[1],1.66
C[C@H]1[C@H](Oc2ccc(-c3cc(-c4ccc(Br)cc4)[nH]n3)cc2)O[C@@H]2O[C@@]3(C)CC[C@H]4[C@H](C)CC[C@@H]1[C@@]24OO3,GI50,NCI/ADR-RES,30 nM
same,GI50,MCF7,440 nM
same,RatioGI50,[1],14.7
same,GI50,MDA-MB-231,550 nM
COc1ccc(-c2cc(-c3ccc(O[C@@H]4O[C@@H]5O[C@@]6(C)CC[C@H]7[C@H](C)CC[C@@H]([C@H]4C)[C@@]57OO6)cc3)n[nH]2)cc1,GI50,NCI/ADR-RES,52 nM
same,GI50,MCF7,440 nM
same,RatioGI50,[1],8.5
same,GI50,MDA-MB-231,1420 nM
COc1ccc(-c2cc(-c3ccc(O[C@@H]4O[C@@H]5O[C@@]6(C)CC[C@H]7[C@H](C)CC[C@@H]([C@H]4C)[C@@]57OO6)cc3)n[nH]2)c(OC)c1,GI50,NCI/ADR-RES,41 nM
same,GI50,MCF7,500 nM
same,RatioGI50,[1],12.2
same,GI50,MDA-MB-231,760 nM
CC(=O)N1N=C(c2ccc(O[C@H]3O[C@@H]4O[C@@]5(C)CC[C@H]6[C@H](C)CC[C@@H]([C@H]3C)[C@@]46OO5)cc2)CC1c1ccc(Br)cc1 (some centres not stated),GI50,NCI/ADR-RES,26 nM
same,GI50,MCF7,300 nM
same,RatioGI50,[1],11.5
same,GI50,MDA-MB-231,370 nM
CC(=O)N1N=C(c2ccc(O[C@H]3O[C@@H]4O[C@@]5(C)CC[C@H]6[C@H](C)CC[C@@H]([C@H]3C)[C@@]46OO5)cc2)CC1c1ccc(Cl)cc1 (some centres not stated),GI50,NCI/ADR-RES,30 nM
same,GI50,MCF7,220 nM
same,RatioGI50,[1],7.3
same,GI50,MDA-MB-231,160 nM
C[C@H]1[C@H](Oc2ccc(-c3cc(-c4ccccc4)[nH]n3)cc2)O[C@@H]2O[C@@]3(C)CC[C@H]4[C@H](C)CC[C@@H]1[C@@]24OO3,GI50,NCI/ADR-RES,19 nM
same,GI50,MCF7,260 nM
same,RatioGI50,[1],13.7
same,GI50,MDA-MB-231,960 nM
C[C@H]1[C@@H](Oc2ccc(-c3cc(-c4ccc(Cl)cc4)[nH]n3)cc2)O[C@@H]2O[C@@]3(C)CC[C@H]4[C@H](C)CC[C@@H]1[C@@]24OO3,GI50,NCI/ADR-RES,55 nM
same,GI50,MCF7,190 nM
same,RatioGI50,[1],3.6
same,GI50,MDA-MB-231,920 nM
CC(=O)N1N=C(c2ccc(O[C@H]3O[C@@H]4O[C@@]5(C)CC[C@H]6[C@H](C)CC[C@@H]([C@H]3C)[C@@]46O5)cc2)CC1c1ccccc1 (some centres not stated),GI50,MCF7,11000 nM
COc1cccc2c1C(=O)c1c(O)c3c(c(O)c1C2=O)C[C@@](O)(C(=O)CO)C[C@@H]3O[C@H]1C[C@H](N)[C@H](O)[C@H](C)O1.Cl [DOXORUBICIN HYDROCHLORIDE],GI50,NCI/ADR-RES,540 nM
same,GI50,MCF7,54 nM
same,RatioGI50,[1],0.1
same,GI50,MDA-MB-231,120 nM
CC(=O)N1N=C(c2ccc(O[C@@H]3O[C@@H]4O[C@@]5(C)CC[C@H]6[C@H](C)CC[C@@H]([C@H]3C)[C@@]46OO5)cc2)CC1c1ccc(Cl)cc1 (some centres not stated),GI50,NCI/ADR-RES,35 nM
same,GI50,MCF7,500 nM
same,RatioGI50,[1],14.3
same,GI50,MDA-MB-231,400 nM

# Source: ChEMBL document CHEMBL4251553, “Synthesis, anticancer evaluation and pharmacokinetic study of novel 10-O-phenyl ethers of dihydroartemisinin” (Eur J Med Chem, 2017)
